Measured values published in ChEMBL document CHEMBL4402510, “Caprazamycins: Promising lead structures acting on a novel antibacterial target MraY” (Eur J Med Chem, 2019).
≈ marks a conversion by molar mass, not a printed value.

Legend:
Enterococcus faecalis [1] = assay: Antibacterial activity against t Enterococcus faecalis after 20 hrs by NCCLS-based two-fold broth dilution method; assay type: functional; settings: read-out: MIC
Enterococcus faecalis [2] = assay: Antibacterial activity against t Enterococcus faecalis VRE after 20 hrs by NCCLS-based two-fold broth dilution method; assay type: functional; settings: read-out: MIC
Staphylococcus aureus [3] = assay: Antibacterial activity against methicillin resistant Staphylococcus aureus after 20 hrs by NCCLS-based two-fold broth dilution method; assay type: functional; settings: read-out: MIC
Staphylococcus aureus [4] = assay: Antibacterial activity against methicillin susceptible Staphylococcus aureus after 20 hrs by NCCLS-based two-fold broth dilution method; assay type: functional; settings: read-out: MIC
Enterococcus faecium [5] = assay: Antibacterial activity against t Enterococcus faecium after 20 hrs by NCCLS-based two-fold broth dilution method; assay type: functional
Enterococcus faecium [6] = assay: Antibacterial activity against t Enterococcus faecium VRE after 20 hrs by NCCLS-based two-fold broth dilution method; assay type: functional; settings: read-out: MIC
Escherichia coli [7] = assay: Antibacterial activity against Escherichia coli after 20 hrs by NCCLS-based two-fold broth dilution method; assay type: functional
Enterococcus faecium [8] = assay: Antibacterial activity against Enterococcus faecium ATCC 19434; assay type: functional
Haemophilus influenzae = assay: Antibacterial activity against Haemophilus influenzae ATCC 10211; assay type: functional
Enterococcus faecalis [9] = assay: Antibacterial activity against Enterococcus faecalis ATCC 29212; assay type: functional
Enterococcus faecalis [10] = assay: Antibacterial activity against Enterococcus faecalis SR7914 (VRE); assay type: functional
[11] = molecular target: T1, Phospho-N-acetylmuramoyl-pentapeptide-transferase (Staphylococcus aureus, UniProt P0C1R8); assay: Inhibition of MraY in Staphylococcus aureus
T1 sequence (P0C1R8 whole entry): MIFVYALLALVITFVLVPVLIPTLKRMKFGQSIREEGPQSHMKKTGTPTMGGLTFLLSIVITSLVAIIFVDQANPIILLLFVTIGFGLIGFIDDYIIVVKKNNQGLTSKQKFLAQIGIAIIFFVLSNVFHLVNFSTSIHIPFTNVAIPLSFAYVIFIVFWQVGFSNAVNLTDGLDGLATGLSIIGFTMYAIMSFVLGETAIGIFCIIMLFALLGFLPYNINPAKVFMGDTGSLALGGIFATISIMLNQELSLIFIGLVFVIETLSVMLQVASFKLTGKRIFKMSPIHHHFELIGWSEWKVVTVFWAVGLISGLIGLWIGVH

Staphylococcus aureus [12] = assay: Antibacterial activity against methicillin susceptible Staphylococcus aureus ATCC 29213; assay type: functional
Staphylococcus aureus [13] = assay: Antibacterial activity against methicillin resistant Staphylococcus aureus SR3637; assay type: functional
Enterococcus faecium [14] = assay: Antibacterial activity against Enterococcus faecium SR7917 (VRE); assay type: functional
Streptococcus pneumoniae = assay: Antibacterial activity against Streptococcus pneumoniae; assay type: functional
Escherichia coli [15] = assay: Antibacterial activity against Escherichia coli ATCC 25922; assay type: functional
Acinetobacter baumannii = assay: Antibacterial activity against Acinetobacter baumannii ATCC 19606; assay type: functional; settings: ATCC 19606 = CIP 70.34 = JCM 6841
Pseudomonas aeruginosa [16] = assay: Antibacterial activity against Pseudomonas aeruginosa PAO1 deltamexB; assay type: functional
Pseudomonas aeruginosa [17] = assay: Antibacterial activity against Pseudomonas aeruginosa YY165; assay type: functional
[18] = test system: Mycolicibacterium smegmatis; assay: Antibacterial activity against Mycobacterium smegmatis after 20 hrs by NCCLS-based two-fold broth dilution method; assay type: functional
Staphylococcus aureus [19] = assay: Antibacterial activity against Staphylococcus aureus after 20 hrs by NCCLS-based two-fold broth dilution method; assay type: functional
Staphylococcus aureus [20] = assay: Antibacterial activity against multi drug resistance Staphylococcus aureus after 20 hrs by NCCLS-based two-fold broth dilution method; assay type: functional
[21] = molecular target: T2, Phospho-N-acetylmuramoyl-pentapeptide-transferase (Bacillus subtilis (strain 168), UniProt Q03521); assay: Inhibition of MraY in Bacillus subtilis using UDP-MurNAc-[14C]pentapeptide as substrate by radioactivity scanning assay
T2 sequence (Q03521 whole entry): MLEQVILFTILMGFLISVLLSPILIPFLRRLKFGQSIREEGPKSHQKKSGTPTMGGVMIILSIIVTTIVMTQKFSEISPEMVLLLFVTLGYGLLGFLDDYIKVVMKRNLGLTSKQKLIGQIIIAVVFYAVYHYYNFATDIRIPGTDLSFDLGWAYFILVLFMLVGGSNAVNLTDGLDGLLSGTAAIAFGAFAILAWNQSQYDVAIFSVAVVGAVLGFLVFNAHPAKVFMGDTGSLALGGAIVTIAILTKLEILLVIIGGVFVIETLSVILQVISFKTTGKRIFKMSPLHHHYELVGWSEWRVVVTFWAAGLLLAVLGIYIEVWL

[22] = molecular target: Phospho-N-acetylmuramoyl-pentapeptide-transferase (Escherichia coli, UniProt E2QF15); assay: Inhibition of MraY in Escherichia coli
Staphylococcus aureus [23] = assay: Antibacterial activity against methicillin resistant Staphylococcus aureus; assay type: functional, organism-based
[24] = molecular target: T2, Phospho-N-acetylmuramoyl-pentapeptide-transferase; assay: Inhibition of MraY in Bacillus subtilis
Escherichia coli [25] = assay: Antibacterial activity against Escherichia coli ATCC 8730; assay type: functional
Citrobacter freundii = assay: Antibacterial activity against Citrobacter freundii ATCC 8090; assay type: functional
Pseudomonas aeruginosa [26] = assay: Antibacterial activity against Pseudomonas aeruginosa ATCC 27853; assay type: functional
Staphylococcus aureus [27] = assay: Antibacterial activity against Staphylococcus aureus ATCC 25923; assay type: functional
Staphylococcus aureus [28] = assay: Antibacterial activity against methicillin resistant Staphylococcus aureus ATCC 43300; assay type: functional

Sequence of Phospho-N-acetylmuramoyl-pentapeptide-transferase (Escherichia coli, UniProt E2QF15) (E2QF15 whole entry): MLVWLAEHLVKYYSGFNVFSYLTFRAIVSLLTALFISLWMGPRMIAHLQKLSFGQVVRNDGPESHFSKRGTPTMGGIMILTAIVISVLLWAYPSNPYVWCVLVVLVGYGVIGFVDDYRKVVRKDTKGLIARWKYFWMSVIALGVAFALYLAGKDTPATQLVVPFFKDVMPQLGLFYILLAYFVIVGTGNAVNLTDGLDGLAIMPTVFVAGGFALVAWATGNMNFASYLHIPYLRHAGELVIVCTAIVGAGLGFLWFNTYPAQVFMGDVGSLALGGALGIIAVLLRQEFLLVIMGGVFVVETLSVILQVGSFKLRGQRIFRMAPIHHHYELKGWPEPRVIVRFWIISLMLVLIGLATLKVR

SMILES: CCCCCCCCCCCCCCCC(=O)N[C@H]1CCN[C@H]([C@@H](O[C@@H]2O[C@H](CN)[C@@H](O)[C@H]2O)[C@H]2O[C@@H](n3ccc(=O)[nH]c3=O)[C@H](O)[C@@H]2O)C1
- MIC (Enterococcus faecalis [1]): 16 µg/mL (≈ 22.5 µM)
- MIC (Enterococcus faecalis [2]): 16 µg/mL (≈ 22.5 µM)
- MIC (Staphylococcus aureus [3]): 16 µg/mL (≈ 22.5 µM)
- MIC (Staphylococcus aureus [4]): 8 µg/mL (≈ 11.2 µM)
- MIC (Enterococcus faecium [5]): 32 µg/mL (≈ 45 µM)
- MIC (Enterococcus faecium [6]): 8 µg/mL (≈ 11.2 µM)
- MIC (Escherichia coli [7]): 32 µg/mL (≈ 45 µM)
- MIC (Enterococcus faecium [8]): 32 µg/mL (≈ 45 µM)
- MIC (Haemophilus influenzae): > 64 µg/mL
- MIC (Enterococcus faecalis [9]): 16 µg/mL (≈ 22.5 µM)
- MIC (Enterococcus faecalis [10]): 16 µg/mL (≈ 22.5 µM)
- IC50 [11]: > 2.7 mM
- MIC (Staphylococcus aureus [12]): 8 µg/mL (≈ 11.2 µM)
- MIC (Staphylococcus aureus [13]): 16 µg/mL (≈ 22.5 µM)
- MIC (Enterococcus faecium [14]): 8 µg/mL (≈ 11.2 µM)
- MIC (Streptococcus pneumoniae): 64 µg/mL (≈ 89.9 µM)
- MIC (Escherichia coli [15]): 32 µg/mL (≈ 45 µM)
- MIC (Acinetobacter baumannii): > 64 µg/mL
- MIC (Pseudomonas aeruginosa [16]): > 64 µg/mL
- MIC (Pseudomonas aeruginosa [17]): > 64 µg/mL

SMILES: CCCCCCCCCCCCCCCC(=O)N[C@@H]1CCN[C@@H]([C@@H](O[C@@H]2O[C@H](CN)[C@@H](O)[C@H]2O)[C@H]2O[C@@H](n3ccc(=O)[nH]c3=O)[C@H](O)[C@@H]2O)C1
- MIC (Enterococcus faecalis [1]): 32 µg/mL (≈ 45 µM)
- MIC (Enterococcus faecalis [2]): 32 µg/mL (≈ 45 µM)
- MIC (Staphylococcus aureus [3]): 32 µg/mL (≈ 45 µM)
- MIC (Staphylococcus aureus [4]): 16 µg/mL (≈ 22.5 µM)
- MIC (Enterococcus faecium [5]): 32 µg/mL (≈ 45 µM)
- MIC (Enterococcus faecium [6]): 16 µg/mL (≈ 22.5 µM)
- MIC (Escherichia coli [7]): 32 µg/mL (≈ 45 µM)
- MIC (Enterococcus faecium [8]): 32 µg/mL (≈ 45 µM)
- MIC (Haemophilus influenzae): > 64 µg/mL
- MIC (Enterococcus faecalis [9]): 32 µg/mL (≈ 45 µM)
- MIC (Enterococcus faecalis [10]): 32 µg/mL (≈ 45 µM)
- IC50 [11]: > 2.7 mM
- MIC (Staphylococcus aureus [12]): 16 µg/mL (≈ 22.5 µM)
- MIC (Staphylococcus aureus [13]): 32 µg/mL (≈ 45 µM)
- MIC (Enterococcus faecium [14]): 16 µg/mL (≈ 22.5 µM)
- MIC (Streptococcus pneumoniae): 64 µg/mL (≈ 89.9 µM)
- MIC (Escherichia coli [15]): 32 µg/mL (≈ 45 µM)
- MIC (Acinetobacter baumannii): > 64 µg/mL
- MIC (Pseudomonas aeruginosa [16]): > 64 µg/mL
- MIC (Pseudomonas aeruginosa [17]): > 64 µg/mL

SMILES: CCCCCCCCCCCCCCCC(=O)O[C@H]1CN(C)[C@@H]([C@H](O[C@@H]2O[C@H](CN)[C@@H](O)[C@H]2O)[C@H]2O[C@@H](n3ccc(=O)[nH]c3=O)[C@H](O)[C@@H]2O)C(=O)N(C)[C@@H]1C(=O)O [PALMITOYL CAPRAZOL]
- MIC (Enterococcus faecalis [2]): 12.5 µg/mL (≈ 15.4 µM)
- MIC [18]: 6.25 µg/mL (≈ 7.68 µM)
- MIC (Staphylococcus aureus [19]): 1.56 µg/mL (≈ 1.92 µM)
- MIC (Staphylococcus aureus [20]): 3.13 µg/mL (≈ 3.85 µM)
- MIC (Staphylococcus aureus [3]): 6.25 µg/mL (≈ 7.68 µM)

SMILES: NC[C@H]1O[C@@H](O[C@@H](c2cn(Cc3ccc(COc4ccc(C(=O)c5ccccc5)cc4)cc3)nn2)[C@H]2O[C@@H](n3ccc(=O)[nH]c3=O)[C@H](O)[C@@H]2O)[C@H](O)[C@@H]1O
- IC50 [21]: 50 µM

SMILES: NC[C@H]1O[C@@H](OC[C@H]2O[C@@H](n3ccc(=O)[nH]c3=O)[C@H](O)[C@@H]2O)[C@H](O)[C@@H]1O
- IC50 [22]: 50 µM

SMILES: CCCCCCCCCCCCCCCC(=O)O[C@H]1CN[C@@H]([C@H](O[C@@H]2O[C@H](CN)[C@@H](O)[C@H]2O)[C@H]2O[C@@H](n3ccc(=O)[nH]c3=O)[C@H](O)[C@@H]2O)C(=O)N(C)[C@@H]1C(=O)O [DESMETHYLPALMITOYLCAPRAZOL]
- MIC (Enterococcus faecalis [2]): 12.5 µg/mL (≈ 15.6 µM)
- MIC [18]: 25 µg/mL (≈ 31.3 µM)
- MIC (Staphylococcus aureus [19]): 1.56 µg/mL (≈ 1.95 µM)
- MIC (Staphylococcus aureus [20]): 3.13 µg/mL (≈ 3.91 µM)
- MIC (Staphylococcus aureus [3]): 6.25 to 12.5 µg/mL (≈ 7.81 to 15.6 µM)

SMILES: NC[C@H]1O[C@@H](O[C@@H](c2cn(CCCCCCCCCCOc3ccc(C(=O)c4ccccc4)cc3)nn2)[C@H]2O[C@@H](n3ccc(=O)[nH]c3=O)[C@H](O)[C@@H]2O)[C@H](O)[C@@H]1O
- IC50 [21]: 100 µM
- IC50 (Staphylococcus aureus [23]): 100 µM
- IC50 [24]: 125 µM
- MIC (Escherichia coli [25]): > 128 µg/mL
- MIC (Citrobacter freundii): > 128 µg/mL
- MIC (Pseudomonas aeruginosa [26]): > 128 µg/mL
- MIC (Staphylococcus aureus [27]): 8 µg/mL (≈ 10.3 µM)
- MIC (Staphylococcus aureus [28]): 8 µg/mL (≈ 10.3 µM)
- MIC (Enterococcus faecium [8]): > 128 µg/mL
